Legend:
Assay in all cases: KINOMEscan competition binding
RIPK4 (human) = RIPK4 (human) (UniProt P57078); details: compound 10.0 µM
STK33 (human) = STK33 (human) (UniProt Q9BYT3); details: compound 10.0 µM
MAP4K4 (human) = MAP4K4 (human) (UniProt O95819); details: compound 10.0 µM
MAP3K5 (human) = MAP3K5 (human) (UniProt Q99683); details: compound 10.0 µM
CAMKK1 (human) = CAMKK1 (human) (UniProt Q8N5S9); details: compound 10.0 µM
RIOK1 (human) = RIOK1 (human) (UniProt Q9BRS2); details: compound 10.0 µM
STK17A (human) = STK17A (human) (UniProt Q9UEE5)
Sequence of STK17A (human) (Q9UEE5 whole entry, looked up): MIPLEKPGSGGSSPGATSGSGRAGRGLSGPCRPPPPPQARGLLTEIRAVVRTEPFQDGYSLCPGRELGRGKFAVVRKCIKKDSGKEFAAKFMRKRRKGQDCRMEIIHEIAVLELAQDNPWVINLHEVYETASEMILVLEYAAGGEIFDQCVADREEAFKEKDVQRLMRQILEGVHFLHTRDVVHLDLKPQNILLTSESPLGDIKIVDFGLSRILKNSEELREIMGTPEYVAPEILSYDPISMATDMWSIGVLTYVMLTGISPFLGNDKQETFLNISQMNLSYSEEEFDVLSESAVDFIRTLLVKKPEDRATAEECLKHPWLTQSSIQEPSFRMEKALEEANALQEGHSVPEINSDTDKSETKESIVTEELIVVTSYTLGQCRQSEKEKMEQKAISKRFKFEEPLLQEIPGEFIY

DAPK2 (human) = DAPK2 (human) (UniProt Q9UIK4)
Sequence of DAPK2 (human) (Q9UIK4 whole entry, looked up): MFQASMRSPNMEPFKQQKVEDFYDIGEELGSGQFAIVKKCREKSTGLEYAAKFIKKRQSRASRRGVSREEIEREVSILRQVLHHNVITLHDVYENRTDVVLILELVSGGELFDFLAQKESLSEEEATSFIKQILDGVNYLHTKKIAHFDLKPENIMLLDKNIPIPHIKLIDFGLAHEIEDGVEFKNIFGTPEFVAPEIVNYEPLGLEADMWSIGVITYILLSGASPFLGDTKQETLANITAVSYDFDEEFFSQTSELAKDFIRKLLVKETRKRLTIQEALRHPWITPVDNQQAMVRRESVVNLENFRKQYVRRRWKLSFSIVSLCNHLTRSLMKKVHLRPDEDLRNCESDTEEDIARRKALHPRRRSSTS

PRKD3 (human) = PRKD3 (human) (UniProt O94806); details: compound 10.0 µM
PIK3CG (human) = PIK3CG (human) (UniProt P48736); details: compound 10.0 µM
[1] = test system: FLT3 (human), P36888 [N841I]; details: compound 10.0 µM
MYLK (human) = MYLK (human) (UniProt Q15746); details: compound 10.0 µM
[2] = test system: FLT3 (human), P36888 [ITD]; details: compound 10.0 µM
RPS6KA2 KD2 (human) = RPS6KA2 KD2 (human) (UniProt Q15349); details: compound 10.0 µM
PIP4K2B (human) = PIP4K2B (human) (UniProt P78356); details: compound 10.0 µM
RPS6KA1 KD2 (human) = RPS6KA1 KD2 (human) (UniProt Q15418); details: compound 10.0 µM
Sequence of RPS6KA1 KD2 (human) (Q15418 whole entry, looked up): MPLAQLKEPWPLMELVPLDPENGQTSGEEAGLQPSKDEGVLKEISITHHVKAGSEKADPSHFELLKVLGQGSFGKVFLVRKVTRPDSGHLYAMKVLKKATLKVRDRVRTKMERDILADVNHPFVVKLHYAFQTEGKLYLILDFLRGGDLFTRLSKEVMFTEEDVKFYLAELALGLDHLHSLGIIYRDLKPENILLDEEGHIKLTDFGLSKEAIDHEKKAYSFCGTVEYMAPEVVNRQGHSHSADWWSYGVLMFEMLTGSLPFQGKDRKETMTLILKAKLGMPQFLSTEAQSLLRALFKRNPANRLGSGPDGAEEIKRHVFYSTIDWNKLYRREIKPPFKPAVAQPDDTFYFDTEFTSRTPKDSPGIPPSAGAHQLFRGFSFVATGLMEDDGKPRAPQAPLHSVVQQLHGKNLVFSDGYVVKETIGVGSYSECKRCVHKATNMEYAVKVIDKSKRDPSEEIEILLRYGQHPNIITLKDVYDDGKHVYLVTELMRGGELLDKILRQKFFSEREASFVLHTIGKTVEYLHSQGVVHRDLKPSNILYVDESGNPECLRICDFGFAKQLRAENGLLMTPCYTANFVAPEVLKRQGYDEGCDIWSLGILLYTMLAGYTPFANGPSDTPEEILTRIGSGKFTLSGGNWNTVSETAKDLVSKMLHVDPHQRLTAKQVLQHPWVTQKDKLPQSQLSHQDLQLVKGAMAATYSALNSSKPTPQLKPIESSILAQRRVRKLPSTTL

[3] = test system: FLT3 (human), P36888 [D835H]; details: compound 10.0 µM
STK17B (human) = STK17B (human) (UniProt O94768)
Sequence of STK17B (human) (O94768 whole entry, looked up): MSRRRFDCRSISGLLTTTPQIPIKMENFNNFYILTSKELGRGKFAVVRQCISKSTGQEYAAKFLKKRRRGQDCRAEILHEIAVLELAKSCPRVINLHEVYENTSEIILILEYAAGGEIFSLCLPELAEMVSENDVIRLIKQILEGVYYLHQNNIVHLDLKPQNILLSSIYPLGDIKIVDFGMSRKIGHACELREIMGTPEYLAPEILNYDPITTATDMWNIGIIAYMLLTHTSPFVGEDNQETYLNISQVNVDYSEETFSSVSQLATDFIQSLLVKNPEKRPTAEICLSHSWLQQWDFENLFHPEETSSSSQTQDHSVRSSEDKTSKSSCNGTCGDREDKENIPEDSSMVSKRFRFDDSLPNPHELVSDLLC

TAOK1 (human) = TAOK1 (human) (UniProt Q7L7X3); details: compound 10.0 µM
PRKD1 (human) = PRKD1 (human) (UniProt Q15139); details: compound 10.0 µM
PDGFRB (human) = PDGFRB (human) (UniProt P09619); details: compound 10.0 µM
DMPK (human) = DMPK (human) (UniProt Q09013); details: compound 10.0 µM
Sequence of DMPK (human) (Q09013 whole entry, looked up): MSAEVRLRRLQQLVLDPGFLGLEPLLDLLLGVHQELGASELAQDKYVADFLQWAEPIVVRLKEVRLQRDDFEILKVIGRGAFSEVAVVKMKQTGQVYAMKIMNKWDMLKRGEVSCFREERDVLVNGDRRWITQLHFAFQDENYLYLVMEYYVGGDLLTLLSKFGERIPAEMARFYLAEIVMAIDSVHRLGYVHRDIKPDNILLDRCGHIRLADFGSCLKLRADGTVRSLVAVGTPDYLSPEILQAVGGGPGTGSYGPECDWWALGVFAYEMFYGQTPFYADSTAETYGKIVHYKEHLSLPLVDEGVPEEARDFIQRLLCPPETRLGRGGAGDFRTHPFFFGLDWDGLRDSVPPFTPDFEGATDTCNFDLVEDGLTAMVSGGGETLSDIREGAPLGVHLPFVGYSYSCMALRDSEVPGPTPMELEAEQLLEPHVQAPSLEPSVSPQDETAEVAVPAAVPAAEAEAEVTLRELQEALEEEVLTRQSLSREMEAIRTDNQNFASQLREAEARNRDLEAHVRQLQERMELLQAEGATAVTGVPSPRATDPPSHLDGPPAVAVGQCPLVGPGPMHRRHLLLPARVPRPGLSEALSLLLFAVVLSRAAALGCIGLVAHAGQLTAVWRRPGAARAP

CLK1 (human) = CLK1 (human) (UniProt P49759)
Sequence of CLK1 (human) (P49759 whole entry, looked up): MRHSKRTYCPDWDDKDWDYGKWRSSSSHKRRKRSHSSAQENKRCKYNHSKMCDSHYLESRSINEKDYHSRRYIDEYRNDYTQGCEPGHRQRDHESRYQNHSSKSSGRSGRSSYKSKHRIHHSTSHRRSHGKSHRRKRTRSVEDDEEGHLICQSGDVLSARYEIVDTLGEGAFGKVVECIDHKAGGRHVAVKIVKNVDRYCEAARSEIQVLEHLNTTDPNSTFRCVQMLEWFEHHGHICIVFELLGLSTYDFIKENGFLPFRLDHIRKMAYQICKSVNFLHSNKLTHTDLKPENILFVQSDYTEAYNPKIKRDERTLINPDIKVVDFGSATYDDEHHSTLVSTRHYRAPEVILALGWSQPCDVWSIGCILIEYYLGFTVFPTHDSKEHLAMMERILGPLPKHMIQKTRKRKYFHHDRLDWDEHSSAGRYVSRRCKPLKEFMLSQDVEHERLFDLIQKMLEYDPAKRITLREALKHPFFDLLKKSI

DAPK3 (human) = DAPK3 (human) (UniProt O43293); details: compound 10.0 µM
Sequence of DAPK3 (human) (O43293 whole entry, looked up): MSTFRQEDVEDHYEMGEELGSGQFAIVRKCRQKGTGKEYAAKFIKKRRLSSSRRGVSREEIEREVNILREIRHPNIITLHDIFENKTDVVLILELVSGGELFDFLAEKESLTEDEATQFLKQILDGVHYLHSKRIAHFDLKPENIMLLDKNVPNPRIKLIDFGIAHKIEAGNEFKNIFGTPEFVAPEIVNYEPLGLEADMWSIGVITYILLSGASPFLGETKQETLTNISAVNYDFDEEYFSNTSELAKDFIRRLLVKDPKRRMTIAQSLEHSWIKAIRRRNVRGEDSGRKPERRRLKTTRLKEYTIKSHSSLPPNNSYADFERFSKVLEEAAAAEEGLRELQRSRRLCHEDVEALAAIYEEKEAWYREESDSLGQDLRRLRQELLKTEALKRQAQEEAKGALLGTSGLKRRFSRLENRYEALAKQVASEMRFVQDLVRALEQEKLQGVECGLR

RPS6KA5 KD2 (human) = RPS6KA5 KD2 (human) (UniProt O75582); details: compound 10.0 µM
[4] = test system: FLT3 (human), P36888 [K663Q]; details: compound 10.0 µM
CHUK (human) = CHUK (human) (UniProt O15111); details: compound 10.0 µM
[5] = biological target: JAK1 JH2 pseudokinase (human) (UniProt P23458); details: compound 10.0 µM
CDK16 (human) = CDK16 (human) (UniProt Q00536); details: compound 10.0 µM
CLK3 (human) = CLK3 (human) (UniProt P49761); details: compound 10.0 µM
CSNK1E (human) = CSNK1E (human) (UniProt P49674); details: compound 10.0 µM
Sequence of CSNK1E (human) (P49674 whole entry, looked up): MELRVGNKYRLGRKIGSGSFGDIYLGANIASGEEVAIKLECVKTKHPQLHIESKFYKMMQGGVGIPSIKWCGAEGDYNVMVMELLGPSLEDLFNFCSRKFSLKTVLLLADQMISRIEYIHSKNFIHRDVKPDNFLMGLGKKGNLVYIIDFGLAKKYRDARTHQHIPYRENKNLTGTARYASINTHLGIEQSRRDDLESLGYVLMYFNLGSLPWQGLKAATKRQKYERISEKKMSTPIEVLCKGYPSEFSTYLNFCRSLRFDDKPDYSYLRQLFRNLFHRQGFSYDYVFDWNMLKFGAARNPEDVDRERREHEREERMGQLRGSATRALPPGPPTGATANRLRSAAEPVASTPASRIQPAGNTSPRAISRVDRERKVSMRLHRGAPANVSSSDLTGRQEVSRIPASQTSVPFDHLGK

[6] = test system: KIT (human), P10721 [V559D/T670I]; details: compound 10.0 µM
[7] = biological target: TYK2 JH2 pseudokinase (human) (UniProt P29597); details: compound 10.0 µM
MAP2K4 (human) = MAP2K4 (human) (UniProt P45985); details: compound 10.0 µM
Sequence of MAP2K4 (human) (P45985 whole entry, looked up): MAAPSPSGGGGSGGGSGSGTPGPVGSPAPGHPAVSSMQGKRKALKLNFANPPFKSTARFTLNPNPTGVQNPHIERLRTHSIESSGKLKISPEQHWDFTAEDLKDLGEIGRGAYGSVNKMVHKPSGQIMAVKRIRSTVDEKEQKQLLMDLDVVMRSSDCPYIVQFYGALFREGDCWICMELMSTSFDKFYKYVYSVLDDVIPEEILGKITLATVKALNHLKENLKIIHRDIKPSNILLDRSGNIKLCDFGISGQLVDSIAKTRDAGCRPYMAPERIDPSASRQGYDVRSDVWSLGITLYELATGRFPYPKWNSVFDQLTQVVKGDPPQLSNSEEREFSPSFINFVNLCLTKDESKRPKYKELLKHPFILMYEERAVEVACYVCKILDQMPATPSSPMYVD

[8] = test system: EGFR (human), P00533 [747-751 del / S ins]; details: compound 10.0 µM
HIPK1 (human) = HIPK1 (human) (UniProt Q86Z02); details: compound 10.0 µM
PIP5K1A (human) = PIP5K1A (human) (UniProt Q99755); details: compound 10.0 µM
[9] = test system: KIT (human), P10721 [D816V]; details: compound 10.0 µM
[10] = biological target: JAK3 JH1 catalytic (human) (UniProt P52333); details: compound 10.0 µM
CSNK1G3 (human) = CSNK1G3 (human) (UniProt Q9Y6M4); details: compound 10.0 µM
[11] = test system: EGFR (human), P00533 [G719S]; details: compound 10.0 µM

Sequence of CAMKK1 (human) (Q8N5S9 whole entry, looked up): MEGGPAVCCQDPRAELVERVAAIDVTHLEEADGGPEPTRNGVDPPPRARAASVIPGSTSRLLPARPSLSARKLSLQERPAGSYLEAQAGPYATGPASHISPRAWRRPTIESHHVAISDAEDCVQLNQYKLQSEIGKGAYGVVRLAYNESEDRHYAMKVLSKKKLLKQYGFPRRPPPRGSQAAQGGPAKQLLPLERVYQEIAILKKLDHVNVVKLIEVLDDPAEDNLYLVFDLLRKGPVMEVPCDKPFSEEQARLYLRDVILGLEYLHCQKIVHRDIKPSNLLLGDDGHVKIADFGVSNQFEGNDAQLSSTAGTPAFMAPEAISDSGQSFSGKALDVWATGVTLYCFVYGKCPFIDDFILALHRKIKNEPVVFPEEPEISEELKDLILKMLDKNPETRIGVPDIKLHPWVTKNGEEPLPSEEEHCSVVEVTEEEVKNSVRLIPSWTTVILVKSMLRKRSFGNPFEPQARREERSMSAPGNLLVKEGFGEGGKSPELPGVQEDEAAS

O=C1NC(=O)/C(=C/c2c[nH]c(=O)c(-c3ccc(N4CCNCC4)nc3)c2)S1
kinase still bound, per cent of control (RIPK4 (human)): 100%
kinase still bound, per cent of control (STK33 (human)): 2.7%
kinase still bound, per cent of control (MAP4K4 (human)): 4.9%
kinase still bound, per cent of control (MAP3K5 (human)): 100%
kinase still bound, per cent of control (CAMKK1 (human)): 14%
kinase still bound, per cent of control (RIOK1 (human)): 5%
Kd (STK17A (human)): 190 nM
kinase still bound, per cent of control (STK17A (human); compound 10.0 µM): 0.05%
Kd (DAPK2 (human)): 6.1 nM
kinase still bound, per cent of control (DAPK2 (human); compound 10.0 µM): 0.5%
kinase still bound, per cent of control (PRKD3 (human)): 13%
kinase still bound, per cent of control (PIK3CG (human)): 0.3%
kinase still bound, per cent of control [1]: 67%
kinase still bound, per cent of control (MYLK (human)): 42%
kinase still bound, per cent of control [2]: 75%
kinase still bound, per cent of control (RPS6KA2 KD2 (human)): 1.2%
kinase still bound, per cent of control (PIP4K2B (human)): 1.1%
kinase still bound, per cent of control (RPS6KA1 KD2 (human)): 34%
kinase still bound, per cent of control [3]: 71%
Kd (STK17B (human)): 130 nM
kinase still bound, per cent of control (STK17B (human); compound 10.0 µM): 0.15%
kinase still bound, per cent of control (TAOK1 (human)): 24%
kinase still bound, per cent of control (PRKD1 (human)): 8.2%
kinase still bound, per cent of control (PDGFRB (human)): 67%
kinase still bound, per cent of control (DMPK (human)): 3.6%
Kd (CLK1 (human)): 240 nM
kinase still bound, per cent of control (CLK1 (human); compound 10.0 µM): 0.3%
kinase still bound, per cent of control (DAPK3 (human)): 1%
kinase still bound, per cent of control (RPS6KA5 KD2 (human)): 59%
kinase still bound, per cent of control [4]: 92%
kinase still bound, per cent of control (CHUK (human)): 53%
kinase still bound, per cent of control [5]: 64%
kinase still bound, per cent of control (CDK16 (human)): 70%
kinase still bound, per cent of control (CLK3 (human)): 2.8%
kinase still bound, per cent of control (CSNK1E (human)): 11%
kinase still bound, per cent of control [6]: 72%
kinase still bound, per cent of control [7]: 72%
kinase still bound, per cent of control (MAP2K4 (human)): 57%
kinase still bound, per cent of control [8]: 85%
kinase still bound, per cent of control (HIPK1 (human)): 3.5%
kinase still bound, per cent of control (PIP5K1A (human)): 28%
kinase still bound, per cent of control [9]: 76%
kinase still bound, per cent of control [10]: 4%
kinase still bound, per cent of control (CSNK1G3 (human)): 3.2%
kinase still bound, per cent of control [11]: 58%

Reference: the kinase profiling compilation of Christmann-Franck et al. (2016)
